Among the data in patent US9822147B2, “Methods of treating ophthalmic diseases using NPR-B agonists” (priority 2009, dated 2017) are EC50 values, retold here.

Numbered stars: 1 amine (or outer) side, 2 acyl side, 3 side chain; on linkers, the order of the positions; unused ones are H or OH. Square brackets hold non-standard residues; d marks the D form. Peptide text beside a SMILES is read from it. * marks the point of attachment. X5 = NCCC(=O)N[C@@H]1C[C@@H](C(=O)[*:2])N([*:1])C1; X12 = CC(C)(C)CNC[C@@H](N[*:1])C(=O)[*:2]; Pro(4R-NH2) = N[C@H]1CN[C@H](C(=O)O)C1; Gly(cPent) = N[C@H](C(=O)O)C1CCCC1; X19 = O=C(C(CC1CCNCC1)N[*:1])[*:2]; X2 = O=C([C@H]1CCCN([*:1])C1)[*:2]; dDap(Me2) = CN(C)C[C@@H](N)C(=O)O; Hyp = O=C(O)[C@@H]1C[C@@H](O)CN1; NHcycloheptyl = C1CCCC(N*)CC1; NMeL = CN[C@@H](CC(C)C)C(=O)O; Octanoyl = CCCCCCCC(=O)*; Api = NC1(C(=O)O)CCNCC1

The target of this assay is T1, NPR-B (Homo sapiens, UniProt P20594).
T1 construct: a functional assay using endogenously NPR-B expressing GTM-3 cells; endogenous in cells; host or cells: GTM-3 (human glaucoma trabecular meshwork cells)
T1 sequence (P20594 23-1047): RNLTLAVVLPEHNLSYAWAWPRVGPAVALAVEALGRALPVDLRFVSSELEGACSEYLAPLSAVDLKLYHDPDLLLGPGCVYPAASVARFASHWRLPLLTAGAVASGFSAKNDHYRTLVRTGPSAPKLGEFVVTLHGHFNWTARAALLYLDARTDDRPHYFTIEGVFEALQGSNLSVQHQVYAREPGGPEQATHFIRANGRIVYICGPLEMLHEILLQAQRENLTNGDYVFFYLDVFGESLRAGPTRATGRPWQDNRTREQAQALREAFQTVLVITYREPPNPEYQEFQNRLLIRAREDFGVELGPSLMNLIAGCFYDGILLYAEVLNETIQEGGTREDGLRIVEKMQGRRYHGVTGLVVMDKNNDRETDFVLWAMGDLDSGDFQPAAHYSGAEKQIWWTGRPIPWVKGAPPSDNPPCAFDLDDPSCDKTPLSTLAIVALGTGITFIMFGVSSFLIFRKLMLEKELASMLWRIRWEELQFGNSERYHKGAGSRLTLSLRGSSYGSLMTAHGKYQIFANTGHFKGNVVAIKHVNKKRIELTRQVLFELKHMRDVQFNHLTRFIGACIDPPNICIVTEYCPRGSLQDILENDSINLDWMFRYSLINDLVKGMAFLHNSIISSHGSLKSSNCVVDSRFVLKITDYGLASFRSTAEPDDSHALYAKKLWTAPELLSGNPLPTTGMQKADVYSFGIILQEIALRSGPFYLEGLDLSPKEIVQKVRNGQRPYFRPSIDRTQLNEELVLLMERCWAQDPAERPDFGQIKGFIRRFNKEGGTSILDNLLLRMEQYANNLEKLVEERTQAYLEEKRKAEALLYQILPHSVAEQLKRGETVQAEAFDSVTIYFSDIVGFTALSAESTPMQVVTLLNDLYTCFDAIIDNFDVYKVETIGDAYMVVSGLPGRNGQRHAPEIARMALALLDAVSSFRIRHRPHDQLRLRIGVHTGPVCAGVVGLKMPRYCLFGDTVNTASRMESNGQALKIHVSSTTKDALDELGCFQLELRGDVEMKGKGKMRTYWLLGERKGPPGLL
The assay can be described thus: NPR-B induced production of cyclic GMP in human glaucoma trabecular meshwork cells (GTM-3). The format is cell-based. The note with it: group by EC50 and Emax (CNP = 100%); Table 4; read-out: Activity (group), NPR-B activation assayed with GTM-3 cells.
Consider `CCCCCCCC(=O)N1CCC[C@H](C(=O)N[C@@H](Cc2ccccc2)C(=O)N[C@H](CC(C)C)C(=O)N[C@@H](CC(C)C)C(=O)N2C[C@H](O)C[C@H]2C(=O)N[C@H](C(=O)N[C@@H](CC(=O)O)C(=O)N[C@@H](CCCNC(=N)N)C(=O)N[C@H](C(N)=O)[C@@H](C)CC)C2CCCC2)C1` [JAL-1626, Occ-Sni-Phe-leu-Leu-Hyp-Cpg-Asp-Arg-Ile-NH2] (Octanoyl-[X2]F[dL]L[Hyp][Gly(cPent)]DRI-NH2), for which the EC50 is < 1000 nM.

With `CCCCCCCC(=O)N1CCC[C@H](C(=O)N[C@@H](Cc2ccccc2)C(=O)N[C@H](CN(C)C)C(=O)N[C@@H](CC(C)C)C(=O)N2C[C@H](O)C[C@H]2C(=O)N(C)[C@@H](CC(C)C)C(=O)N[C@@H](CC(=O)O)C(=O)N2CCC[C@H]2C(=O)NC2CCCCCC2)C1` [JAL-1604, Occ-Sni-Phe-dap(Me2)-Leu-Hyp-Nml-Asp-Pro-Che] (Octanoyl-[X2]F[dDap(Me2)]L[Hyp][NMeL]DP-NHcycloheptyl), the EC50 was < 1000 nM.

As for `CCCCCCCC(=O)N[C@H](C)C(=O)N[C@@H](Cc1ccccc1)C(=O)N[C@H](CNCC(C)(C)C)C(=O)N[C@@H](CC(C)C)C(=O)N1C[C@H](N)C[C@H]1C(=O)N(C)[C@@H](CC(C)C)C(=O)N[C@@H](CC(=O)O)C(=O)N[C@@H](CCCNC(=N)N)C(=O)N[C@H](C(N)=O)[C@@H](C)CC` [JAL-1463, Occ-ala-Phe-dap(1464)-Leu-Tap-Nml-Asp-Arg-Ile-NH2] (Octanoyl-[dA]F[X12]L[Pro(4R-NH2)][NMeL]DRI-NH2), the EC50 was < 1000 nM.

Turning to `CCCCCCCC(=O)N[C@H](C)C(=O)N[C@@H](Cc1ccccc1)C(=O)NC1(C(=O)N[C@@H](CC(C)C)C(=O)N2C[C@H](O)C[C@H]2C(=O)N(C)[C@@H](CC(C)C)C(=O)N[C@@H](CC(=O)O)C(=O)N[C@@H](CCCNC(=N)N)C(=O)N[C@H](C(N)=O)[C@@H](C)CC)CCNCC1` [JAL-1338, Occ-ala-Phe-Apc-Leu-Hyp-Nml-Asp-Arg-Ile-NH2] (HELM PEPTIDE1{[CCCCCCCC(=O)[*:2]].[dA].F.[O=C(C1(N[*:1])CCNCC1)[*:2]].L.[Hyp].[meL].D.R.I.[am]}$$$$V2.0), the EC50 is < 1000 nM.

For the compound `CCCCCCCC(=O)N[C@H](C)C(=O)N[C@@H](Cc1ccccc1)C(=O)NC(C(=O)N[C@@H](CC(C)C)C(=O)N1C[C@H](O)C[C@H]1C(=O)N(C)[C@@H](CC(C)C)C(=O)N[C@@H](CC(=O)O)C(=O)N[C@@H](CCCNC(=N)N)C(=O)N[C@H](C(N)=O)[C@@H](C)CC)C1CCCNC1` (stereo partly drawn) [JAL-1336, Occ-ala-Phe-Fhy-Leu-Hyp-Nml-Asp-Arg-Ile-NH2] (HELM PEPTIDE1{[CCCCCCCC(=O)[*:2]].[dA].F.[O=C(C(N[*:1])C1CCCNC1)[*:2]].L.[Hyp].[meL].D.R.I.[am]}$$$$V2.0), the EC50 is < 1000 nM.

Regarding `CCCCCCCC(=O)N1CCC[C@H](C(=O)N[C@@H](Cc2ccccc2)C(=O)NC(CC2CCNCC2)C(=O)N[C@@H](CC(C)C)C(=O)N2C[C@H](O)C[C@H]2C(=O)N(C)[C@@H](CC(C)C)C(=O)N[C@@H](CC(=O)O)C(=O)N[C@@H](CCCNC(=N)N)C(=O)N[C@H](C(N)=O)[C@@H](C)CC)C1` (stereo partly drawn) [JAL-1890, Occ-Sni-Phe-Egg-Leu-Hyp-Nml-Asp-Arg-Ile-NH2] (Octanoyl-[X2]F[X19]L[Hyp][NMeL]DRI-NH2), the EC50 was < 1000 nM.

On to `CCCCCCCC(=O)N1CCCC[C@@H]1C(=O)N[C@@H](Cc1ccccc1)C(=O)N[C@H](CCCNC(=N)N)C(=O)N[C@@H](CC(C)C)C(=O)N1CCC[C@H]1C(=O)N(C)[C@@H](CC(C)C)C(=O)N[C@@H](CC(=O)O)C(=O)N[C@@H](CCCNC(=N)N)C(=O)N[C@H](C(N)=O)[C@@H](C)CC` [JAL-1078, Occ-pip-Phe-arg-Leu-Pro-Nml-Asp-Arg-Ile-NH2] (HELM PEPTIDE1{[CCCCCCCC(=O)[*:2]].[O=C([C@H]1CCCCN1[*:1])[*:2]].F.[dR].L.P.[meL].D.R.I.[am]}$$$$V2.0), for which the EC50 was < 1000 nM.

On to `CCCCCCCC(=O)N1CCC[C@H](C(=O)N[C@@H](Cc2ccccc2)C(=O)N[C@H](CC(C)C)C(=O)N[C@@H](CC(C)C)C(=O)N2C[C@H](O)C[C@H]2C(=O)N(C)[C@@H](CC(C)C)C(=O)N[C@H](C(=O)N[C@@H](CCCNC(=N)N)C(=O)N[C@H](C(N)=O)[C@@H](C)CC)C(C)C)C1` [JAL-1398, Occ-Sni-Phe-leu-Leu-Hyp-Nml-Val-Arg-Ile-NH2] (HELM PEPTIDE1{[CCCCCCCC(=O)[*:2]].[O=C([C@H]1CCCN([*:1])C1)[*:2]].F.[dL].L.[Hyp].[meL].V.R.I.[am]}$$$$V2.0), for which the EC50 is < 1000 nM.

As to `CCCCCCCC(=O)N[C@H](C)C(=O)N[C@@H](Cc1ccccc1)C(=O)N[C@H](CC(C)C)C(=O)N[C@@H](CC(C)C)C(=O)N1C[C@H](O)C[C@H]1C(=O)N(C)[C@@H](CC(C)C)C(=O)N[C@@H](CC(=O)O)C(=O)N[C@@H](CCCNC(=N)N)C(=O)N[C@H](C(N)=O)C(C)(C)C` [JAL-1352, Occ-ala-Phe-leu-Leu-Hyp-Nml-Asp-Arg-Tbg-NH2] (HELM PEPTIDE1{[CCCCCCCC(=O)[*:2]].[dA].F.[dL].L.[Hyp].[meL].D.R.[CC(C)(C)[C@H](N[*:1])C(=O)[*:2]].[am]}$$$$V2.0), the EC50 is < 1000 nM.

In the case of `CCCCCCCC(=O)N1CCC[C@H](C(=O)N[C@@H](Cc2ccccc2)C(=O)N[C@H](CC(C)C)C(=O)N[C@@H](CC(C)C)C(=O)N2C[C@H](NC(=O)CCN)C[C@H]2C(=O)N(C)[C@@H](CC(C)C)C(=O)N[C@@H](CC(=O)O)C(=O)N[C@@H](CCCNC(=N)N)C(=O)N[C@H](C(N)=O)[C@@H](C)CC)C1` [JAL-1323, Occ-Sni-Phe-leu-Leu-Tap(Bal)-Nml-Asp-Arg-Ile-NH2] (Octanoyl-[X2]F[dL]L[X5][NMeL]DRI-NH2), the EC50 is < 1000 nM.

Consider `CCCCCCCCCC(=O)N1CCC[C@H](C(=O)N[C@@H](Cc2ccccc2)C(=O)N[C@H](CC(C)C)C(=O)N[C@@H](CC(C)C)C(=O)N2C[C@H](O)C[C@H]2C(=O)N(C)[C@@H](CC(C)C)C(=O)N[C@@H](CC(=O)O)C(=O)N[C@@H](CCCNC(=N)N)C(=O)N[C@H](C(N)=O)[C@@H](C)CC)C1` [JAL-1666, 5587-Sni-Phe-leu-Leu-Hyp-Nml-Asp-Arg-Ile-NH2] (HELM PEPTIDE1{[CCCCCCCCCC(=O)[*:2]].[O=C([C@H]1CCCN([*:1])C1)[*:2]].F.[dL].L.[Hyp].[meL].D.R.I.[am]}$$$$V2.0), for which the EC50 was < 1000 nM.

Take `CCCCCCCC(=O)N1CCC[C@H](C(=O)N[C@@H](Cc2ccccc2)C(=O)NC2(C(=O)N[C@@H](CC(C)C)C(=O)N3C[C@H](N)C[C@H]3C(=O)N(C)[C@@H](CC(C)C)C(=O)N[C@@H](CC(=O)O)C(=O)N[C@@H](CCCNC(=N)N)C(=O)N[C@H](C(N)=O)[C@@H](C)CC)CCNCC2)C1` [JAL-1351, Occ-Sni-Phe-Apc-Leu-Tap-Nml-Asp-Arg-Ile-NH2] (Octanoyl-[X2]F[Api]L[Pro(4R-NH2)][NMeL]DRI-NH2): the EC50 was < 1000 nM.

Regarding `CCCCCCCC(=O)N1CCC[C@H](C(=O)N[C@@H](Cc2ccccc2)C(=O)NC2(C(=O)N[C@@H](CC(C)C)C(=O)N3C[C@H](N)C[C@H]3C(=O)N(C)[C@@H](CC(C)C)C(=O)N[C@@H](CC(=O)O)C(=O)N3CCC[C@H]3C(=O)NC3CCCCCC3)CCNCC2)C1` [JAL-1602, Occ-Sni-Phe-Apc-Leu-Tap-Nml-Asp-Pro-Che] (Octanoyl-[X2]F[Api]L[Pro(4R-NH2)][NMeL]DP-NHcycloheptyl), the EC50 was < 1000 nM.

`CCCCCCCC(=O)N1CCC[C@H](C(=O)N[C@@H](Cc2ccccc2)C(=O)N[C@H](CC(C)C)C(=O)N[C@@H](CC(C)C)C(=O)N2C[C@H](O)C[C@H]2C(=O)N(C)[C@@H](CC(C)C)C(=O)N[C@H](C(=O)N[C@@H](CCCNC(=N)N)C(=O)N[C@H](C(N)=O)[C@@H](C)CC)[C@@H](C)O)C1` [JAL-1932, Occ-Sni-Phe-leu-Leu-Hyp-Nml-Thr-Arg-Ile-NH2] (HELM PEPTIDE1{[CCCCCCCC(=O)[*:2]].[O=C([C@H]1CCCN([*:1])C1)[*:2]].F.[dL].L.[Hyp].[meL].T.R.I.[am]}$$$$V2.0): the EC50 was < 1000 nM.

Turning to `CC[C@H](C)[C@H](NC(=O)[C@H](CCCNC(=N)N)NC(=O)[C@H](CC(=O)O)NC(=O)[C@H](CC(C)C)N(C)C(=O)[C@@H]1C[C@@H](O)CN1C(=O)[C@H](CC(C)C)NC(=O)[C@@H](CC(C)C)NC(=O)[C@H](Cc1ccccc1)NC(=O)[C@H]1CCCN(C(=O)CCCCc2ccccc2)C1)C(N)=O` [JAL-1606, 1320-Sni-Phe-leu-Leu-Hyp-Nml-Asp-Arg-Ile-NH2] (HELM PEPTIDE1{[O=C(CCCCc1ccccc1)[*:2]].[O=C([C@H]1CCCN([*:1])C1)[*:2]].F.[dL].L.[Hyp].[meL].D.R.I.[am]}$$$$V2.0), the EC50 was < 1000 nM.
